Test results as given in ChEMBL document CHEMBL1127569, “Comparison of the conformation of active and nonactive backbone cyclic analogs of substance P as a tool to elucidate features of the bioactive conformation: NMR and molecular dynamics in DMSO and water” (J Med Chem, 1994).
pEC50: −log10 of the molar value. Starred links: 1 amine or outer side, 2 acyl side, 3 side chain; linkers in the order of their positions; H or OH if unused. Positions of bridges follow the written chain, without caps; N, C: chain ends. Non-standard residues stand in square brackets, D forms with d. Residues, ends and D or L forms follow the SMILES beside them. NGly(3-aminopropyl) = O=C(CN(CCCN[*:3])[*:1])[*:2]; N(2-Aminoethyl)Gly = O=C(CN(CCN[*:3])[*:1])[*:2]; Adipoyl = O=C(CCCCC(=O)[*:2])[*:1]; Glutaryl = O=C(CCCC(=O)[*:2])[*:1]; Suc = O=C(CCC(=O)[*:2])[*:1]

Key:
[1] = biological target: T1, Substance-K receptor (Homo sapiens, UniProt P21452); experiment: Tested for the biological activity and selectivity against NK-2 receptor
T1 sequence (P21452 whole entry): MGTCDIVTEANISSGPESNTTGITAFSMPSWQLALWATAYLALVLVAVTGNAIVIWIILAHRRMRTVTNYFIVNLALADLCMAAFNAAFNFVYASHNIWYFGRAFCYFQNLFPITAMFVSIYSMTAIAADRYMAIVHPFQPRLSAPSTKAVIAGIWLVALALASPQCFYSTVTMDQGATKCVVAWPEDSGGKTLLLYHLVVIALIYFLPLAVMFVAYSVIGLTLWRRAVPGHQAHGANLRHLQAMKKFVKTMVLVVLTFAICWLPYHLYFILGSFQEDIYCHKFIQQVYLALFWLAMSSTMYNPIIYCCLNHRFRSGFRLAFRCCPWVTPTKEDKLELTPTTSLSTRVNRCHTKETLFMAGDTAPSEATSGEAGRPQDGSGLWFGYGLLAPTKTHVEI

[2] = biological target: Substance-P receptor (Homo sapiens, UniProt P25103); experiment: Tested for the biological activity and selectivity against NK-1 receptor
Chain of Substance-P receptor (P25103 whole entry): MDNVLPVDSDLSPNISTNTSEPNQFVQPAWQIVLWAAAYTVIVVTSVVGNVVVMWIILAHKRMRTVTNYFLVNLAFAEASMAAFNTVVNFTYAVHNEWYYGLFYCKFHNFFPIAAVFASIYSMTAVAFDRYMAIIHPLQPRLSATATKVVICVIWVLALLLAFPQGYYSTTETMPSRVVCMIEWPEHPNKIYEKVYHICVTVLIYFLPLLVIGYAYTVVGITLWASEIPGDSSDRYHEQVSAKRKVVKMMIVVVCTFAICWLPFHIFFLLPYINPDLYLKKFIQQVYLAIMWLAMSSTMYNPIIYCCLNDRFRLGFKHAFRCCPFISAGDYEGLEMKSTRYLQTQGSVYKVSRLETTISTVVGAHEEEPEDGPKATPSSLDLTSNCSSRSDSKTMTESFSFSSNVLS

[3] = biological target: T2, Neuromedin-K receptor (Homo sapiens, UniProt P29371); experiment: Tested for the biological activity and selectivity against NK-3 receptor
T2 sequence (P29371 whole entry): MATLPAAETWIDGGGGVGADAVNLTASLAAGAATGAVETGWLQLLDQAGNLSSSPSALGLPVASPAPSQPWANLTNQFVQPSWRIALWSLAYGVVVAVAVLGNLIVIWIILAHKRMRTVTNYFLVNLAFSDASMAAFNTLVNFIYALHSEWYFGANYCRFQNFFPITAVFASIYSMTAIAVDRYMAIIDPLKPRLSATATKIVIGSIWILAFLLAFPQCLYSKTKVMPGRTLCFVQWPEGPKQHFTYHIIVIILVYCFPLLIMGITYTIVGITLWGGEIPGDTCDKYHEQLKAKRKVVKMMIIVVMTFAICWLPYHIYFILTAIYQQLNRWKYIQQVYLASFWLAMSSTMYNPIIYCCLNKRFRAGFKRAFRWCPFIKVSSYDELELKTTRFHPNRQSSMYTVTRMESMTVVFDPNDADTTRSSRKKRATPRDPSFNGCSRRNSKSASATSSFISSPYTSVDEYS

| pEC50 [1] | pEC50 [2] | pEC50 [3] | Structure (SMILES) |
| --- | --- | --- | --- |
| < 4.30 | < 5.00 | < 5.00 | CSCC[C@H](NC(=O)[C@H](CC(C)C)NC(=O)CN1CCNC(=O)CCC(=O)NCC(=O)N[C@@H](CCCN=C(N)N)C(=O)N[C@@H](Cc2ccccc2)C(=O)N[C@@H](Cc2ccccc2)C1=O)C(N)=O (GRFF[N(2-Aminoethyl)Gly]LM-NH2; linker N-5 via Suc) |
| < 4.30 | 8.30 | < 5.00 | CSCC[C@H](NC(=O)[C@H](CC(C)C)NC(=O)CN1CCCNC(=O)CCCCC(=O)N[C@@H](CCCN=C(N)N)C(=O)N[C@@H](Cc2ccccc2)C(=O)N[C@@H](Cc2ccccc2)C1=O)C(N)=O (RFF[NGly(3-aminopropyl)]LM-NH2; linker N-4 via Adipoyl) |
| < 4.30 | 7.96 | < 5.00 | CSCC[C@H](NC(=O)[C@H](CC(C)C)NC(=O)CN1CCCNC(=O)CCCC(=O)N[C@@H](CCCN=C(N)N)C(=O)N[C@@H](Cc2ccccc2)C(=O)N[C@@H](Cc2ccccc2)C1=O)C(N)=O (RFF[NGly(3-aminopropyl)]LM-NH2; linker N-4 via Glutaryl) |
| < 4.30 | 6.74 | < 5.00 | CSCC[C@H](NC(=O)[C@H](CC(C)C)NC(=O)CN1CCCNC(=O)CCC(=O)N[C@@H](CCCN=C(N)N)C(=O)N[C@@H](Cc2ccccc2)C(=O)N[C@@H](Cc2ccccc2)C1=O)C(N)=O (RFF[NGly(3-aminopropyl)]LM-NH2; linker N-4 via Suc) |
